Results on 23 molecules are retold here after patent US7875647B2, “Heteroaryl-pyrazole derivatives as cannabinoid CB1 receptor antagonists” (Green Cross Corporation, priority 2006, dated 2011).

One test deals with T1, Cannabinoid-1 receptor (CB1R) (Rattus norvegicus, UniProt P20272).
T1 construct: The tissue obtained from the brain of SD rats was homogenized; from tissue; host or cells: brain of SD rats (membrane pellet of the homogenate)
T1 sequence (P20272 whole entry): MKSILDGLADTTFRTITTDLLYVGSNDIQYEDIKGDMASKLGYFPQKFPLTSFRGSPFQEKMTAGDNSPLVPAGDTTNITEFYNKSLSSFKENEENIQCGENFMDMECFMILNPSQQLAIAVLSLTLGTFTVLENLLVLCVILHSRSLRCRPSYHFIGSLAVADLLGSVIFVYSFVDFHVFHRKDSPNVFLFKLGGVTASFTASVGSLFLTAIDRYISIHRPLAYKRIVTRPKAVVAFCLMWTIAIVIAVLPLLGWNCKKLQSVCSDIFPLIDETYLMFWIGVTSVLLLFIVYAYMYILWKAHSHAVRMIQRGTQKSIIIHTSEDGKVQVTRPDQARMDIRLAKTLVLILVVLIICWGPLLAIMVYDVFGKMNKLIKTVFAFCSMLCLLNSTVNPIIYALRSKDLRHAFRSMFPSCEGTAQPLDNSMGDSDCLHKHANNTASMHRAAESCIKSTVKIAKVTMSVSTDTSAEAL
The experiment in a line: Cannabinoid-1 receptor (CB1R) binding affinity assay ([3H]CP-55940, rat CB-1 receptor binding protocol). The conditions noted are these: IC50(nM), brain tissue of SD rats, [3H]CP-55940, 30° C. 60 min.
In turn, `Cc1c(-c2ncc(C(C)(C)C)o2)nn(-c2ccc(Cl)cc2Cl)c1-c1ccc(Cl)cc1` [Example 644, 5-tert-butyl-2-(5-(4-chlorophenyl)-1-(2,4-dichlorophenyl)-4-methyl-1H-pyrazol-3-yl)oxazole] had an IC50 of 14.2 nM.

The same test, now with this note: brain tissue of SD rats, [3H]CP-55940, 30° C. 60 min; read-out: IC50.
As to `CCC(C)c1nc(-c2nn(-c3ccc(Cl)cc3Cl)c(-c3ccc(Cl)cc3)c2C)n[nH]1` (centres unmarked) [Example 622, 5-sec-butyl-3-(5-(4-chlorophenyl)-1-(2,4-dichlorophenyl)-4-methyl-1H-pyrazol-3-yl)-1H-1,2,4-triazole], the IC50 worked out at 840 nM.

As for `CC(C)(C)c1nnc(-c2nn(-c3ccc(Cl)cc3Cl)c(-c3ccc(Cl)cc3)c2Cl)o1` [Example 337, 2-tert-butyl-5-(4-chloro-5-(4-chlorophenyl)-1-(2,4-dichlorophenyl)-1H-pyrazol-3-yl)-1,3,4-oxadiazole], the IC50 amounted to 105 nM.

For `Cc1c(-c2nnc(C3(C(F)(F)F)CCC3)o2)nn(-c2ccc(Cl)cc2Cl)c1-c1ccc(Cl)cc1` [Example 135, 2-(5-(4-chlorophenyl)-1-(2,4-dichlorophenyl)-4-methyl-1H-pyrazol-3-yl)-5-(1-(trifluoromethyl)cyclobutyl)-1,3,4-oxadiazole], the IC50 came to 16.3 nM.

With `Cc1c(-c2nnc(-c3cccs3)o2)nn(-c2ccc(Cl)cc2Cl)c1-c1ccc(Cl)cc1` [Example 11, 2-(5-(4-chlorophenyl)-1-(2,4-dichlorophenyl)-4-methyl-1H-pyrazol-3-yl)-5-(thiophen-2-yl)-1,3,4-oxadiazole], the IC50 was 96.6 nM.

`Cc1c(-c2n[nH]c(-c3ccco3)n2)nn(-c2ccc(Cl)cc2Cl)c1-c1ccc(Cl)cc1` [Example 616, 3-(5-(4-chlorophenyl)-1-(2,4-dichlorophenyl)-4-methyl-1H-pyrazol-3-yl)-5-(furan-2-yl)-1H-1,2,4-triazole]: the IC50 was determined as 534 nM.

For `CCC(C)(C)c1nnc(-c2nn(-c3ccc(Cl)cc3Cl)c(-c3ccc(Cl)cc3)c2Br)s1` [Example 545, 2-(4-bromo-5-(4-chlorophenyl)-1-(2,4-dichlorophenyl)-1H-pyrazol-3-yl)-5-tert-pentyl-1,3,4-thiadiazole], the half-maximal inhibitory concentration (IC50) came to 23.3 nM.

Turning to `Cc1c(-c2ncc(C3CCCC3)s2)nn(-c2ccc(Cl)cc2Cl)c1-c1ccc(Cl)cc1` [Example 648, 2-(5-(4-chlorophenyl)-1-(2,4-dichlorophenyl)-4-methyl-1H-pyrazol-3-yl)-5-cyclopentylthiazole], the IC50 worked out at 69.4 nM.

For `Cc1c(-c2nnc(C3CCC3)s2)nn(-c2ccc(Cl)cc2Cl)c1-c1ccc(Cl)cc1` [Example 345, 2-(5-(4-chlorophenyl)-1-(2,4-dichlorophenyl)-4-methyl-1H-pyrazol-3-yl)-5-cyclobutyl-1,3,4-thiadiazole], the IC50 was 4.08 nM.

Consider `CCc1c(-c2nnc(C3(c4ccc(Cl)cc4)CC3)s2)nn(-c2ccc(Cl)cc2Cl)c1-c1ccc(Cl)cc1` [Example 463, 2-(5-(4-chlorophenyl)-1-(2,4-dichlorophenyl)-4-ethyl-1H-pyrazol-3-yl)-5-(1-(4-chlorophenyl)cyclopropyl)-1,3,4-thiadiazole], for which the IC50 was 3.95 nM.

Consider `CCCCC(OCc1ccccc1)c1nnc(-c2nn(-c3ccc(Cl)cc3Cl)c(-c3ccc(Cl)cc3)c2C)o1` (centres unmarked) [Example 236, 2-(1-(benzyloxy)pentyl)-5-(5-(4-chlorophenyl)-1-(2,4-dichlorophenyl)-4-methyl-1H-pyrazol-3-yl)-1,3,4-oxadiazole], for which the IC50 stood at 177 nM.

`CCCCC(C)c1nnc(-c2nn(-c3ccc(Cl)cc3Cl)c(-c3ccc(Br)cc3)c2CC)s1` (centres unmarked) [Example 388, 2-(5-(4-bromophenyl)-1-(2,4-dichlorophenyl)-4-ethyl-1H-pyrazol-3-yl)-5-(hexan-2-yl)-1,3,4-thiadiazole]: the concentration for half-maximal inhibition (IC50) was found to be 7.01 nM.

For `CCCOC(C)(C)c1nnc(-c2nn(-c3ccc(Cl)cc3Cl)c(-c3ccc(Cl)cc3)c2C)o1` [Example 235, 2-(5-(4-chlorophenyl)-1-(2,4-dichlorophenyl)-4-methyl-1H-pyrazol-3-yl)-5-(2-propoxypropan-2-yl)-1,3,4-oxadiazole], the 50% inhibitory concentration (IC50) was found to be 42 nM.

Consider `Clc1ccc(-c2c(Cn3cncn3)c(-c3nnc(C4(c5ccc(Cl)cc5)CCCC4)s3)nn2-c2ccc(Cl)cc2Cl)cc1` [Example 515, 2-(4-((1H-1,2,4-triazol-1-yl)methyl)-5-(4-chlorophenyl)-1-(2,4-dichlorophenyl)-1H-pyrazol-3-yl)-5-(1-(4-chlorophenyl)cyclopentyl)-1,3,4-thiadiazole], for which the concentration for half-maximal inhibition (IC50) is 1.91 nM.

Consider `CCc1c(-c2nnc(C3(Cc4ccc(Cl)cc4)CC3)o2)nn(-c2ccc(Cl)cc2Cl)c1-c1ccc(Br)cc1` [Example 281, 2-(1-(4-chlorobenzyl)cyclopropyl)-5-(5-(4-bromophenyl)-1-(2,4-dichlorophenyl)-4-ethyl-1H-pyrazol-3-yl)-1,3,4-oxadiazole], for which the IC50 was determined as 6.21 nM.

As for `CC(C)NCc1c(-c2nnc(C(C)(C)C)o2)nn(-c2ccc(Cl)cc2Cl)c1-c1ccc(Cl)cc1` [Example 295, N-((3-(5-tert-butyl-1,3,4-oxadiazol-2-yl)-5-(4-chlorophenyl)-1-(2,4-dichlorophenyl)-1H-pyrazol-4-yl)methyl)propan-2-amine], the IC50 is 41.5 nM.

For `Cc1c(-c2nnnn2Cc2ccsc2)nn(-c2ccc(Cl)cc2Cl)c1-c1ccc(Cl)cc1` [Example 597, 5-(5-(4-Chlorophenyl)-1-(2,4-dichlorophenyl)-4-methyl-1H-pyrazol-3-yl)-1-(thiophen-3-ylmethyl)-1H-tetrazole], the IC50 was 39.8 nM.

`CC(C)(C)c1nnc(-c2nn(-c3ccc(Cl)cc3Cl)c(-c3ccc(Cl)cc3)c2COc2ccccc2)o1` [Example 233, 2-tert-butyl-5-(5-(4-chlorophenyl)-1-(2,4-dichlorophenyl)-4-(phenoxymethyl)-1H-pyrazol-3-yl)-1,3,4-oxadiazole]: the IC50 stood at 28.9 nM.

As to `Cc1c(-c2nnc(C(C)C3CCCC3)o2)nn(-c2ccc(Cl)cc2Cl)c1-c1ccc(Cl)cc1` (centres unmarked) [Example 61, 2-(5-(4-chlorophenyl)-1-(2,4-dichlorophenyl)-4-methyl-1H-pyrazol-3-yl)-5-(1-cyclopentylethyl)-1,3,4-oxadiazole], the IC50 was 22.2 nM.

As for `Cc1c(-c2nnc(C3(c4ccc(Cl)cc4)CC3)o2)nn(-c2ccccc2Cl)c1-c1ccc(Cl)cc1` [Example 112, 2-(1-(2-chlorophenyl)-5-(4-chlorophenyl)-4-methyl-1H-pyrazol-3-yl)-5-(1-(4-chlorophenyl)cyclopropyl)-1,3,4-oxadiazole], the IC50 amounted to 7.4 nM.

In the case of `Cc1c(-c2n[nH]c(-c3ccccc3)n2)nn(-c2ccc(Cl)cc2Cl)c1-c1ccc(Cl)cc1` [Example 613, 3-(5-(4-Chlorophenyl)-1-(2,4-dichlorophenyl)-4-methyl-1H-pyrazol-3-yl)-5-phenyl-1H-1,2,4-triazole], the IC50 turned out to be 476 nM.

Consider `COCc1c(-c2nnc(C(C)(C)C)o2)nn(-c2ccc(Cl)cc2Cl)c1-c1ccc(Cl)cc1` [Example 205, 2-tert-butyl-5-(5-(4-chlorophenyl)-1-(2,4-dichlorophenyl)-4-(methoxymethyl)-1H-pyrazol-3-yl)-1,3,4-oxadiazole], for which the IC50 stood at 15.4 nM.

Regarding `CCc1c(-c2nnc(C3CCCCC3)s2)nn(-c2ccc(Cl)cc2Cl)c1-c1ccc(Cl)cc1` [Example 390, 2-(5-(4-chlorophenyl)-1-(2,4-dichlorophenyl)-4-ethyl-1H-pyrazol-3-yl)-5-cyclohexyl-1,3,4-thiadiazole], the IC50 came out at 18.2 nM.

As a reminder, the IC50 is the concentration at which inhibition is half-maximal.
